In the test the test system is P388 leukemia ip, CD2F1 mice, survival T/C. As to the kind of experiment: NCI In Vivo Anticancer Drug Screen. Data for tumor model P388 Leukemia (intraperitoneal) in CD2F1 (CDF1) mice. Particulars: endpoint: median survival time, higher = longer survival. The procedure, abridged:
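Mice carrying the transplanted tumor received test compound or vehicle. Survival was recorded in each group, and the value is the treated-group measurement divided by that of the vehicle-treated control group.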

The mark [1] stands for this setting: dose: 25.0 mg/kg/injection, schedule: Q04DX002 (ip), vehicle: saline with Tween-80.
Setting [2] is: dose: 50.0 mg/kg/injection, schedule: Q01DX005 (ip), vehicle: saline.
Setting [3] is: dose: 100.0 mg/kg/injection, schedule: Q01DX005 (ip), vehicle: saline.
[4] abbreviates: dose: 200.0 mg/kg/injection, schedule: Q01DX005 (ip), vehicle: saline.
The mark [5] stands for this setting: dose: 12.5 mg/kg/injection, schedule: Q04DX002 (ip), vehicle: saline with Tween-80.
Setting [6] is: dose: 50.0 mg/kg/injection, schedule: Q01DX005 (ip), vehicle: saline with Tween-80.
Setting [7] is: dose: 100.0 mg/kg/injection, schedule: Q01DX005 (ip), vehicle: saline with Tween-80.
[8] abbreviates: dose: 60.0 mg/kg/injection, schedule: Q01DX005 (ip), vehicle: saline with Tween-80.
Where [9] appears, read: dose: 120.0 mg/kg/injection, schedule: Q01DX005 (ip), vehicle: saline with Tween-80.

Molecules are shown by their SMILES. Several values for one entry are separate records, joined by “and”; a condition that tells them apart may be missing. Equal values may be shown once. Inconclusive results and toxic doses are left out.

`CCCCNC(=O)ON1C(=O)c2ccccc2C1=O`: the T/C reads like this: (dose: 1.56 mg/kg/injection, schedule: Q01DX009 (ip), vehicle: saline with Tween-80) 105 % of control; (dose: 3.12 mg/kg/injection, schedule: Q01DX009 (ip), vehicle: saline with Tween-80) 105 % of control; (dose: 6.25 mg/kg/injection, schedule: Q01DX009 (ip), vehicle: saline with Tween-80) 102 % of control and 117 % of control; (dose: 12.5 mg/kg/injection, schedule: Q01DX009 (ip), vehicle: saline with Tween-80) 110 % of control and 113 % of control; (dose: 25.0 mg/kg/injection, schedule: Q01DX009 (ip), vehicle: saline with Tween-80) 119 % of control.
`Cc1cc(N(CCCl)CCCl)ccc1C=Nc1ccccc1-c1ccccc1`: the T/C (dose: 400.0 mg/kg/injection, schedule: Q01DX009 (ip), vehicle: Klucel (hydroxypropylcellulose) (HPC)) is 155 % of control and the T/C (dose: 600.0 mg/kg/injection, schedule: Q01DX009 (ip), vehicle: Klucel (hydroxypropylcellulose) (HPC)) was 170 % of control.
Take `CCC1(CC)C(=O)NC(=O)[N]([Sn]([CH3])([CH3])[N]2C(=O)NC(=O)C(CC)(CC)C2=O)C1=O`: the T/C runs as follows: (dose: 50.0 mg/kg/injection, schedule: Q01DX005 (ip), vehicle: Klucel (hydroxypropylcellulose) (HPC)) 112 % of control; (dose: 100.0 mg/kg/injection, schedule: Q01DX005 (ip), vehicle: Klucel (hydroxypropylcellulose) (HPC)) 111 % of control.
On to `O=C1C(C(=Nc2ccc(Cl)cc2)c2ccccc2)=C(O)c2ccccc21`, for which the T/C under setting [1] is 95 % of control; the T/C (dose: 50.0 mg/kg/injection, schedule: Q04DX002 (ip), vehicle: saline with Tween-80) was 95 % of control; the T/C (dose: 100.0 mg/kg/injection, schedule: Q04DX002 (ip), vehicle: saline with Tween-80) was 95 % of control.
For `CCOC(=O)c1c[nH]c2c(Cl)c(Cl)ccc2c1=O`, the T/C runs as follows: (dose: 50.0 mg/kg/injection, schedule: Q01DX009 (ip), vehicle: Klucel (hydroxypropylcellulose) (HPC)) 102 % of control; (dose: 100.0 mg/kg/injection, schedule: Q01DX009 (ip), vehicle: Klucel (hydroxypropylcellulose) (HPC)) 95 % of control.
For `Cc1cc(C(=O)c2ccccc2)on1`, the T/C is, setting by setting: (dose: 100.0 mg/kg/injection, schedule: Q04DX003 (ip), vehicle: Klucel (hydroxypropylcellulose) (HPC)) 104 % of control; (dose: 200.0 mg/kg/injection, schedule: Q04DX003 (ip), vehicle: Klucel (hydroxypropylcellulose) (HPC)) 100 % of control; (dose: 400.0 mg/kg/injection, schedule: Q04DX003 (ip), vehicle: Klucel (hydroxypropylcellulose) (HPC)) 100 % of control.
`Cc1cc(=O)oc2cc(NCS(=O)(=O)O)ccc12`: the T/C is 100 % of control under setting [2], 98 % of control under setting [3] and 97 % of control under setting [4].
With `CC(=O)NCCCCCCCNC(C)=O`, the T/C is 104 % of control (dose: 60.0 mg/kg/injection, schedule: Q01DX005 (ip), vehicle: saline); 107 % of control (dose: 120.0 mg/kg/injection, schedule: Q01DX005 (ip), vehicle: saline); 96 % of control (dose: 240.0 mg/kg/injection, schedule: Q01DX005 (ip), vehicle: saline).
Take `O=C(O)c1ccccc1C(=O)O.[Cu+2].[NH-]CCC[NH-]`: the T/C under setting [5] is 115 % of control.
For `CCCCOCc1c(-c2ccccc2)sc2ccccc2c1=O`, the T/C under setting [6] is 97 % of control; the T/C under setting [7] was 102 % of control; the T/C (dose: 200.0 mg/kg/injection, schedule: Q01DX005 (ip), vehicle: saline with Tween-80) is 100 % of control.
In the case of `C1C[N-]CC[N-]CC[N-]CC[N-]1.[Cl][Rh][Cl]`, the T/C by setting is: (dose: 0.66 mg/kg/injection, schedule: Q01DX009 (ip), vehicle: saline) 117 % of control; (dose: 1.0 mg/kg/injection, schedule: Q01DX009 (ip), vehicle: saline) 115 % of control; (dose: 1.5 mg/kg/injection, schedule: Q01DX009 (ip), vehicle: saline) 115 % of control; (dose: 2.25 mg/kg/injection, schedule: Q01DX009 (ip), vehicle: saline) 108 % of control; (dose: 3.13 mg/kg/injection, schedule: Q01DX009 (ip), vehicle: saline) 121 % of control; (dose: 6.25 mg/kg/injection, schedule: Q01DX009 (ip), vehicle: saline) 116 % of control. In addition, the T/C (dose: 12.5 mg/kg/injection, schedule: Q01DX009 (ip), vehicle: saline) is 108 % of control.
In the case of `CC(C)(C)C1=CS(=O)(=O)C1`, the T/C is, setting by setting: (dose: 1.56 mg/kg/injection, schedule: Q01DX001 (ip), vehicle: saline with Tween-80) 103 % of control; (dose: 3.12 mg/kg/injection, schedule: Q01DX001 (ip), vehicle: saline with Tween-80) 102 % of control.
Take `COc1cc(Cc2n[nH]c(=S)n2-c2ccccc2)c(S(N)(=O)=O)cc1OC`: the T/C reads like this: under setting [8], 102 % of control; under setting [9], 95 % of control; (dose: 240.0 mg/kg/injection, schedule: Q01DX005 (ip), vehicle: saline with Tween-80) 94 % of control.
For `[Cl][Pt+2][Cl].[NH-]c1ccccc1[NH-]`, the T/C is 163 % of control (dose: 6.25 mg/kg/injection, schedule: Q04DX002 (ip), vehicle: saline with Tween-80); 193 % of control under setting [5]; 167 % of control (dose: 12.5 mg/kg/injection, schedule: Q04DX002 (ip), vehicle: saline); 110 % of control under setting [1].
Take `OCC1OC([Se])C(O)C(O)C1O.[CH3][Sb][CH3]` (centres undefined): the T/C is, setting by setting: under setting [8], 112 % of control; under setting [9], 104 % of control.
With `O=C(NC(=S)c1ccc(Cl)cc1)Nc1ccc(Cl)c(Cl)c1`, the T/C reads like this: (dose: 5.0 mg/kg/injection, schedule: Q01DX009 (ip), vehicle: saline with Tween-80) 87 % of control; (dose: 10.0 mg/kg/injection, schedule: Q01DX009 (ip), vehicle: saline with Tween-80) 96 % of control; (dose: 20.0 mg/kg/injection, schedule: Q01DX009 (ip), vehicle: saline with Tween-80) 100 % of control.
For the compound `CO[C@H](/C(C)=C/C=C/C(C)=C/c1coc(C)n1)[C@H](C)[C@H]1C[C@@H](O)[C@@]2(C)O[C@H]2/C=C/[C@@H](C)[C@@H]2C[C@@H](CC(=O)O2)C[C@H]2O[C@@H]2C(=O)O1`, the T/C by setting is: (dose: 0.1 mg/kg/injection, schedule: Q01DX005 (ip), vehicle: Klucel (hydroxypropylcellulose) (HPC)) 150 % of control; (dose: 0.12 mg/kg/injection, schedule: Q01DX005 (ip), vehicle: Klucel (hydroxypropylcellulose) (HPC)) 150 % of control; (dose: 0.14 mg/kg/injection, schedule: Q01DX005 (ip), vehicle: Klucel (hydroxypropylcellulose) (HPC)) 152 % of control and 160 % of control; (dose: 0.18 mg/kg/injection, schedule: Q01DX005 (ip), vehicle: Klucel (hydroxypropylcellulose) (HPC)) 160 % of control; (dose: 0.24 mg/kg/injection, schedule: Q01DX005 (ip), vehicle: Klucel (hydroxypropylcellulose) (HPC)) 166 % of control; (dose: 0.45 mg/kg/injection, schedule: Q01DX005 (ip), vehicle: Klucel (hydroxypropylcellulose) (HPC)) 171 % of control and 184 % of control and 195 % of control. The T/C (dose: 0.67 mg/kg/injection, schedule: Q01DX005 (ip), vehicle: Klucel (hydroxypropylcellulose) (HPC)) was 181 % of control and 191 % of control; the T/C (dose: 10.0 micrograms/kg/injection, schedule: Q01DX005 (ip), vehicle: Klucel (hydroxypropylcellulose) (HPC)) is 104 % of control; the T/C (dose: 20.0 micrograms/kg/injection, schedule: Q01DX005 (ip), vehicle: Klucel (hydroxypropylcellulose) (HPC)) is 109 % of control and 123 % of control; the T/C (dose: 80.0 micrograms/kg/injection, schedule: Q01DX005 (ip), vehicle: Klucel (hydroxypropylcellulose) (HPC)) is 163 % of control.
In the case of `COC1OC2COc3ccccc3OC2C(NC#N)C1OC` (centres undefined), the T/C is 112 % of control (dose: 60.0 mg/kg/injection, schedule: Q01DX005 (ip), vehicle: Klucel (hydroxypropylcellulose) (HPC)); 108 % of control (dose: 120.0 mg/kg/injection, schedule: Q01DX005 (ip), vehicle: Klucel (hydroxypropylcellulose) (HPC)); 107 % of control (dose: 240.0 mg/kg/injection, schedule: Q01DX005 (ip), vehicle: Klucel (hydroxypropylcellulose) (HPC)).
For `CCN(CCN(C)c1ccccc1)Cc1ccccc1`, the T/C is 105 % of control (dose: 50.0 mg/kg/injection, schedule: Q01DX009 (ip), vehicle: saline with Tween-80); 103 % of control (dose: 100.0 mg/kg/injection, schedule: Q01DX009 (ip), vehicle: saline with Tween-80); 105 % of control (dose: 200.0 mg/kg/injection, schedule: Q01DX009 (ip), vehicle: saline with Tween-80).
`CCCCC(CC)C(=O)OC(C)C(N)=O` (centres undefined): the T/C was 105 % of control under setting [2], 101 % of control under setting [3] and 101 % of control under setting [4].
With `O=S1(=O)C(CCCCC2=Cc3ccccc3S2(=O)=O)=Cc2ccccc21`, the T/C reads like this: under setting [6], 94 % of control; under setting [7], 100 % of control.

(Values after PubChem BioAssay AID330 (DTP/NCI, 2004).)
